Measured values as given in patent publication US6344477B1, “Prostaglandin e agonists for treatment of dry eye” (Alcon Manufacturing, Ltd., priority 1998, dated 2002).

Experiments:
[1] = target: T1, EP2 Receptors in Immortalized Human Non-pigmented Ciliary Epithelial Cells (Homo sapiens, UniProt P43116); experiment: cAMP production (radioimmunoassay) via EP2 receptors in immortalized human non-pigmented ciliary epithelial cells; format: cell-based; conditions: for EC50: cAMP production, 15-60 min at 23° C., read-out: Potency (EC50, nM) at EP2 Receptors in Immortalized Human Non-pigmented Ciliary Epithelial Cells
T1 construct: Immortalized human non-pigmented ciliary epithelial cells (containing EP2 receptors); endogenous in cells; host or cells: immortalized human non-pigmented ciliary epithelial cells
T1 sequence (P43116 whole entry): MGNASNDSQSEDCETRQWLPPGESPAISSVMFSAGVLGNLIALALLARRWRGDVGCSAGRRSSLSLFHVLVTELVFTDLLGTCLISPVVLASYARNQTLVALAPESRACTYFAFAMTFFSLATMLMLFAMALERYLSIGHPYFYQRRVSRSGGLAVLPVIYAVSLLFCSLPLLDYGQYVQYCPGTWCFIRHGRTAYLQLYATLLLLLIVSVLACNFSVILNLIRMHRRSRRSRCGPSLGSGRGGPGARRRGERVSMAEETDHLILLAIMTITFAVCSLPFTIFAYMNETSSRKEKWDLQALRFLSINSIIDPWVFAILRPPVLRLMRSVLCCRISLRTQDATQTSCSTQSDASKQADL
Experimental: (§1) Immortalized human non-pigmented ciliary epithelial cells (containing EP2 receptors) and Chinese hamster ovary cells (containing EP4 receptors) were stimulated with various prostaglandins for 15-60 min at 23° C. The cAMP produced by receptor activation was determined by a specific radioimmunoassay as previously described (Sharif et. al., Pharmacological analysis of mast cell mediator and neurotransmitter receptors coupled to adenylate cyclase and phospholipase C on immunocytochemically-defined human conjunctival epithelial cells, J. Ocular Pharmacology & Therapeutics, 13:321-336 (1997); Crider et. al., Prostaglandin-stimulated adenylyl cyclase activity via a pharmacologically-defined EP2 receptor in human non-pigmented epithelial cells, J. Ocular Pharmacology & Therapeutics, 14:293-304 (1998); Crider et. al., Use of a semi-automated, robotic radioimmunoassay to measure cAMP generated by activation of DP-, EP2- and IP-prostaglandin receptors in human ocular and other cell-types, Prostaglandins, Leukotrienes & Fatty Acids, 59:77-82 (1998); Milne et. al., Human monocytes and cultured Chinese hamster ovary cells express EP4 receptors positively coupled to adenylate cyclase, Br. J. Pharmacology, 113 (supplement), 8p, (1994)).

[2] = target: T2, EP4 Receptors in Chinese Hamster Ovary Cells (Cricetulus griseus, UniProt A0A061ILF4); experiment: cAMP production (radioimmunoassay) via EP4 receptors in Chinese hamster ovary cells; format: cell-based; conditions: 15-60 min at 23° C.; for EC50: read-out: Potency (EC50, nM) at EP4 Receptors in Chinese Hamster Ovary Cells
T2 construct: Chinese hamster ovary cells (containing EP4 receptors); endogenous in cells; host or cells: Chinese hamster ovary cells
T2 sequence (A0A061ILF4 1-488): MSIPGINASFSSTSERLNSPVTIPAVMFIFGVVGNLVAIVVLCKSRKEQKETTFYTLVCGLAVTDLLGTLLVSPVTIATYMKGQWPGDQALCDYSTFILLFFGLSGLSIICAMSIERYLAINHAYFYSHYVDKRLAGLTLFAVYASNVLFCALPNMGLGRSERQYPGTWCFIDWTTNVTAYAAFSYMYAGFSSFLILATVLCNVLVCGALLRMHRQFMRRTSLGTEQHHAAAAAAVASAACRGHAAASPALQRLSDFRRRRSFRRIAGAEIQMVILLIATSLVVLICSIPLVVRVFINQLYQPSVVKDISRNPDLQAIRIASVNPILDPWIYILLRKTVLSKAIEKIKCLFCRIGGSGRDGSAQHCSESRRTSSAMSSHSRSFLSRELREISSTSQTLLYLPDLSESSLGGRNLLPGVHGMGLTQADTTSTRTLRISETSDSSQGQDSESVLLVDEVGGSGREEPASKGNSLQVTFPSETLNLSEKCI
Experimental: as §1

| EC50 [2] | Efficacy at EP4 Receptors in Chinese Hamster Ovary Cells [2] | Compound | EC50 [1] | Receptor selectivity EP2 versus EP4 ([1]; comparison of EC50 at EP2 and EP4 receptors) |
| --- | --- | --- | --- | --- |
| > 10000 nM |  | CCCC1([C@H](O)C/C=C/[C@H]2[C@H](O)CC(=O)[C@@H]2CCCCCCC(=O)OC)CCC1 [Butaprost, reference compound] | 212 nM | more EP2-selective |
| 31 nM |  | CCCCC(C)(C)[C@H](O)/C=C/[C@H]1[C@H](O)CC(=O)[C@@H]1C/C=C\CCCC(=O)O [16,16-dimethyl-PGE2] | 686 nM |  |
| 38 nM | 86% | CCCCC[C@H](O)/C=C/[C@H]1CCC(=O)[C@@H]1CCCCCCC(=O)O [11-deoxy-PGE1] | 500 nM |  |
| 176 nM |  | CCCCC(C)(C)[C@H](O)/C=C/[C@H]1CCC(=O)[C@@H]1C/C=C\CCCC(=O)O [11-deoxy-16,16-dimethyl-PGE2, 11-deoxy-16,16,-dimethyl-PGE2] | 739 nM |  |
